# From patent US12691151B2, “Methods and compositions for improving oncolytic virus infection for nonpermissive cancers” (Arizona Board of Regents on behalf of Arizona State …, priority 2019, dated 2026)
# “Also recorded” adds a separate entry of the source.
# Experiments:
# Type in all cases: cell-based, human
# [1] = tested on: PANC-1 cells
# [2] = tested on: A549 cell line; experiment: MYXV replication in the permissive A549 cell line
# [3] = tested on: MDA-MB-435 cells
# [4] = tested on: MDA-MB-435 cells; remark: listed apart in the source
# [5] = tested on: PANC-1 cells; remark: listed apart in the source
# [6] = tested on: HT29 cells
# [7] = tested on: HT29 cells; remark: listed apart in the source
# [8] = tested on: PANC-1 cells; remark: listed apart in the source
smiles,measurement,setting,value
CCC(=C/[C@H](C)C/C=C/C(C)=C/[C@@H](C)C(=O)[C@@H](C)[C@H](O)[C@@H](C)C/C(C)=C/C(=O)O)/C=C/[C@@H]1OC(=O)C=C[C@@H]1C [Leptomycin B],"cell viability (ATP), Leptomycin B pretreatment plus MYXV",[1],further reduced the viability; also recorded: reduced cell viability
same,cell viability (ATP),[1]; 40 h,sensitive to Leptomycin B treatment alone
same,viral replication,[2],only increased viral replication at an MOI of 0.1 or lower
same,viral replication (virus titer),[3],enhanced MYXV gene expression and replication
same,GFP (early/late) and TdTomato (late) expression,[4],enhanced GFP (early/late) and TdTomato (late) expression; also recorded: enhanced MYXV gene expression
same,formation of foci,[4],allowed formation of small foci
same,viral replication (virus titer),[5],enhanced MYXV gene expression and replication
same,GFP (early/late) and TdTomato (late) expression,[6],enhanced MYXV early (GFP) and late (TdTomato) gene expression levels
same,formation of foci,[6],allowed formation of small foci
same,viral replication (virus titer),[7],enhanced viral replication; also recorded: enhanced MYXV replication
same,GFP (early/late) and TdTomato (late) expression,[8],enhanced GFP (early/late) and TdTomato (late) expression; also recorded: enhanced MYXV gene expression
same,formation of foci,[8],allowed formation of small foci
